Series [1] can be described thus: Stability of exendin-4 in DMSO formulations, text summary of SCX- and RP-HPLC purity (Example 1, FIGS. 1 and 2). In kind it is physicochemical. As to the method:
(§1) The stability of exendin-4 in DMSO and DMSO with 0.5% water added may be evaluated as follows. The evaluation may be based on the stability of exendin-4 samples stored at 5, 25, and 40° C. for up to 6 months. Further, the stability of exendin-4 in DMSO, as compared to aqueous buffers at a pH of 4.5 may be evaluated.
(§2) Three HPLC methods may be used to analyze the samples: size exclusion HPLC (SEC-HPLC) to determine potency (mg/ml) and two methods to evaluate purity (%), a strong cation exchange (SCX) method and a reversed-phase (RP) method. The methods may be adapted as necessary to achieve appropriate sample analysis. Additionally, the water content of the samples may be evaluated using a suitable Karl Fischer analytical procedure.
More particularly, 25 mg/mL samples of exendin-4 in neat DMSO and DMSO/0.5% water are prepared in N2 atmosphere and held at 5, 25, and 40° C. for 6 months (abbreviated as “mos.”).
Exendin-4 may be formulated in DMSO and DMSO spiked with 0.5% water. […] Exendin-4 purity is reduced about 28% from initial values after 6 months at 40° C. At 25° C., the purity is decreased about 3 to 4% over the same time period. (See FIGS. 1 and 2). However, at 5° C. the purity remains within 0.4 to 0.6% of initial purity values. […] By comparison to aqueous product stability (FIGS. 3 and 4), it is apparent that exendin-4 stability is improved in the aprotic, polar solvent DMSO.

Series [2] is described as follows: Stability of exendin-4 in DMSO and DMSO/0.5% water, SEC-HPLC potency (Example 1). Format: physicochemical. Conditions: in DMSO and DMSO with 0.5% water, up to 6 months at 5, 25, 40° C. As to the method:
as §1, §2
For example, SEC-HPLC can be used to measure the potency of an exendin-4 solution by external standard assay, based on total peptide content of the exendin-containing solution at 214 nm, as compared to qualified reference standard solutions. The identity, potency and label strength of exendin-4 can be established by comparison of the retention times of the exendin-4 peaks in the sample and reference standard solutions.
For a six-month delivery period, approximately 3600 μg of exendin-4 may be desirable based on a 20 μg/day dose. Assuming a representative delivery reservoir of approximately 150 μL, a concentration of about 25 mg/mL may be desirable. […]

For series [3], the system named is cloned GLP-1 receptor. The note with it: cells transfected with the cloned GLP-1 receptor; cited from earlier work.
Series [4] in a line: Stability of exendin-4 in DMSO, DMSO/0.5% water and aqueous buffer pH 4.5, SCX-HPLC purity (Example 1). Format: physicochemical. The note with it: FIGS. 3 and 4, 25° C. and 40° C. As to the method: as §1, §2
For a six-month delivery period, approximately 3600 μg of exendin-4 may be desirable based on a 20 μg/day dose. Assuming a representative delivery reservoir of approximately 150 μL, a concentration of about 25 mg/mL may be desirable. Further, proteins and peptides are commonly lyophilized and often include some residual moisture. As such, the effect of water on peptide stability may be investigated, and samples may be prepared in neat DMSO and in DMSO with 0.5% water added.
This concentration of water will depress the 18.6° C. freezing point of DMSO to only about 17.5° C. […]

Series [5] can be described thus: Exendin-4 stability in aprotic, polar solvent systems, SCX-Purity (Example 2). Format: physicochemical. Conditions: 10% w/w water (0.67 mole fraction DMSO). As to the method:
The stability of exendin-4 in other aprotic, polar solvents and in DMSO-based co-solvent systems may also be evaluated. The evaluation may be based on the stability of exendin-4 samples stored at 5, 25, and 37° C. for up to 6 months. In addition to dimethyl sulfoxide (DMSO), solvents for evaluation include water, dimethyl acetamide (DMA), dimethyl formamide (DMF), N-methylpyrrolidone (NMP), Propylene carbonate, and ethyl acetate.
Three HPLC methods may be used to analyze the samples: size exclusion HPLC (SEC-HPLC) to determine potency (mg/ml) and two methods to evaluate purity (%), a strong cation exchange (SCX) method and a reversed-phase (RP) method. […] Additionally, the water content of the samples may be evaluated using a suitable Karl Fischer analytical procedure.
Nonaqueous Solvents: The stability of exendin-4 in aprotic, polar solvents with freezing points lower than 0° C. may be evaluated. […]
Co-solvent System with Water: Water at approximately 8% w/w depresses the freezing point of DMSO to just below 0° C. To provide additional protection against freezing, a 10% w/w water solution may be evaluated. […]
Co-solvent Systems with Aprotic, Polar Solvents: Other solvents can also be used to depress the freezing point of DMSO. […] Appropriate amounts of the non-aqueous solvent may first be determined. Next the solubility of exendin-4 may be evaluated by visual inspection in the co-solvent mixture. […]

Turning to Exendin-4, the “difference due to the presence of 0.5% water” value in series [1] (DMSO vs DMSO spiked with 0.5% water) was “no substantial difference”. Also, in series [1] (in DMSO and DMSO with 0.5% water, 6 months at 40° C.), the “purity reduced from initial values” is given as “about 28%”. The changes in potency result in series [2] is listed as “Essentially no changes”. Further, in series [3], the “activity at the cloned GLP-1 receptor (cAMP)” value was “agonist”. For the same substance, the “stability in DMSO by comparison to aqueous product stability” value in series [4] was “improved”. Moreover, in series [5], the “stability of exendin-4 in DMSO solvent solution containing 10% w/w water” value is “enhanced”.

On to exendin[9-39], for which the “activity at the cloned GLP-1 receptor (cAMP)” value in series [3] is “antagonist”.

The values above are taken from US20160120950A1, “Pharmaceutical Formulations Comprising Incretin Mimetic Peptide and Aprotic Polar Solvent” (Amylin Pharmaceuticals, LLC, priority 2008, published 2016).
